Source: PMC11314621, “Cheminformatics-Guided Exploration of Synthetic Marine Natural Product-Inspired Brominated Indole-3-Glyoxylamides and Their Potentials for Drug Discovery” (Molecules, 2024)
Read-outs that look alike come from different tables or passages of the source.

Experiments:
protein kinase C = details: ref [15]; cited from earlier work
α-synuclein = target: T1, α-synuclein (Homo sapiens, UniProt P37840); experiment: In vitro α-synuclein affinity MS-binding assay; details: 3 h incubation, 5:1 molar ratio, (+)-HRESIMS
T1 construct: α-synuclein protein solutions (10 μM) were prepared in 10 mM ammonium acetate
Description: The synthetic indoles were incubated with α-syn for 3 h at a 5:1 molar ratio, after which a (+)- mode high-resolution MS spectrum was acquired.
α-synuclein protein solutions (10 μM) were prepared in 10 mM ammonium acetate. Synthetic IGAs 25, 26, 34, 41, 45, 46, 51, and 52 (100 μM) were dissolved in 100% MeOH and incubated with α-syn at room temperature for 3 h. Protein-ligand interactions were analysed using (+) HRESIMS calibrated with sodium trifluoroacetate (0.1 mg/mL) with the following parameters: nebuliser 2.0 Bar; dry gas 7 L/min; dry temp 150 °C; funnel I RF 400 Vpp; end plate offset 500 V; capillary 4500 V; ISCID 0.0 ev; ion energy 4.0 eV; transfer time 100 μs; multipole RF 800 Vpp; collision RF 1200 Vpp; prepulse storage 10 μs; spectra rate: 2 × 100 Hz. The resulting spectra were analysed for additional peaks representing complexes formed between α-syn and active compounds.

[1] = target: T2, α-chymotrypsin from bovine pancreas (Bos taurus, UniProt P00766); experiment: Serine protease assay, chymotrypsin; type: biochemical; details: for remaining activity at 10 µM / % enzyme activity @ 10 µM, chymotrypsin: remaining enzyme activity; for IC50: IC50 ± standard deviation
T2 construct: α-chymotrypsin from bovine pancreas (Sigma, C4129); purchased Sigma C4129; host or cells: bovine pancreas
Description: (§1) Serine protease-inhibitory activities for 25–56 were determined in 96 well plates. Each inhibitor was initially tested in duplicate against elastase and chymotrypsin at 10 µM. […] Assays for the inhibition of elastase were undertaken using high-purity porcine pancreatic elastase (Sigma, Melbourne, Victoria, Australia, E0258) in an assay buffer of 50 mM Tris-HCl (pH 8.0) at room temperature. Dilutions of each inhibitor (originally resuspended in DMSO) were prepared in triplicate and then preincubated with 375 ng of elastase for 15 min at room temperature in a total reaction volume of 85 µL. Following this preincubation, 15 µL of 2 mM N-succinyl-Ala-Ala-Ala-p-nitroanilide (Sigma, S4760) in assay buffer was added to each well and kinetic measurement of absorbance at 405 nm (Tecan Spark Plate Reader, Zürich, Switzerland) was undertaken for 30 min. […] Dilutions of each inhibitor were prepared in triplicate and preincubated with 5 µg of chymotrypsin for 10 min at 37 °C in a total reaction volume of 75 µL. After preincubation, 25 µL of 2 mM N-succinyl-Gly-Gly-Phe-p-nitroanilide (Sigma, S1899) was added to each well and kinetic measurement of absorbance at 405 nm was undertaken for 30 min. Inhibitory activity was determined by comparison of the slope of the reaction curve for multiple dilutions of the inhibitor to that of an equivalent solvent control and expressed as IC50 ± standard deviation.

SARS-CoV-2 3CLpro [2] = target: T3, SARS-CoV-2 3CLpro (Severe acute respiratory syndrome coronavirus 2, UniProt P0DTD1); experiment: biochemical
T3 construct: Each well contained 25 nM of SARS-CoV-2 3CL^Pro and eCFP-Venus biosensor (500 nM)

[3] = target: T4, porcine pancreatic elastase (Sus scrofa, UniProt P00772); experiment: Serine protease assay, elastase; type: biochemical; details: remaining enzyme activity
T4 construct: high-purity porcine pancreatic elastase (Sigma, Melbourne, Victoria, Australia, E0258); purchased Sigma E0258
Description: as §1

HEK293 cells = experiment: HEK293 cell cytotoxicity; type: cell-based; details: 60 µM, human embryonic kidney cell line
P. falciparum 3D7 = experiment: Antiplasmodial image-based assay, 3D7 strain; type: cell-based, Plasmodium falciparum; details: chloroquine-sensitive P. falciparum strain 3D7
Description: (§2) An anti-plasmodial imaging assay reported by Duffy and Avery was used to examine the antiplasmodial activities of synthetic indoles 25, 26, 36, 37, 38, 40, 41, 43, 45, 46, 47, 48, 50 and 51. All compounds were diluted to […] in DMSO and tested at three increasing concentrations from 0.4 nM–40 μM per log dose in a 16-point CRC ([…]) parasite strains of Plasmodium falciparum. […] Normalised percent inhibition data was obtained using in-plate positive (4 μM DHA) and negative (0.4% DMSO) controls, which were then used to calculate IC50 values. Compounds were incubated in CellCarrier-384 well imaging plates in the presence of 2% parasitemia (3D7 or Dd2) at 0.3% hematocrit in a total assay volume of 50 μL for 72 h at 37 °C, 5% O2, 5% CO2 and 90% N2. After incubation, plates were stained with 4′,6-diamidino-2-phenylindole (DAPI) and imaged using an Opera Phenix high-content imaging system (Revvity, Mulgrave, Victoria, Australia). Images were analysed using Harmony (Revvity) software (version 3), while percent parasite inhibition was calculated using the minimum (0.4% DMSO) and (DHA). IC50 values were determined by plotting % inhibition against log dose and analysed using nonlinear regression and sigmoidal dose-response using GraphPad Prism version 6.

P. falciparum Dd2 = experiment: Antiplasmodial image-based assay, Dd2 strain; type: cell-based, Plasmodium falciparum; details: chloroquine-resistant P. falciparum strain Dd2
Description: as §2

prion = details: cited from earlier work
SARS-CoV-2 3CLpro [4] = target: T3, SARS-CoV-2 3CLpro; details: cited from earlier work; for inhibition of SARS-CoV-2 3CLPro: ref [33]
HIV-1 = system: HIV-1; set-up: method as in PMID 34095843, PMID 30940396; details: ref [34],[35]; cited from earlier work
elastase = system: elastase; set-up: method as in PMID 37609780; details: ref [36]; cited from earlier work

T4 sequence (P00772 27-266): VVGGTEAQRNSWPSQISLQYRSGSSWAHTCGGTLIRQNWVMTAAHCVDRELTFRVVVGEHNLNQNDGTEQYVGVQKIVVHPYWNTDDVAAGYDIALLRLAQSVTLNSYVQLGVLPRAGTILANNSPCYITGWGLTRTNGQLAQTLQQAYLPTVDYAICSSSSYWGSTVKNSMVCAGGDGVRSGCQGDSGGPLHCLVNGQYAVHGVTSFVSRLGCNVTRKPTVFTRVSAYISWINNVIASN

CO[C@@H]1[C@H](NC(=O)C(=O)c2c[nH]c3ccccc23)C[C@H]2O[C@]1(C)n1c3ccccc3c3c4c(c5c6ccccc6n2c5c31)C(=O)NC4 [Compound 13, 13G-291]
protein kinase C inhibition (protein kinase C): only weak inhibition

O=C(N[C@@H](CSSC[C@H](NC(=O)C(=O)c1c[nH]c2cc(Br)ccc12)C(=O)O)C(=O)O)C(=O)c1c[nH]c2cc(Br)ccc12 [Compound 34, 6-bromoindolyl-3-glyoxyl-L-cystine]
binding with α-syn (protein-ligand complexes in MS) (α-synuclein): α-syn binding displayed | remaining activity at 10 µM [1]: 93.1% | inhibition at 20 µM (SARS-CoV-2 3CLpro [2]; 20 µM, no DTT, read-out: % inhibition @ 20 µM, No DTT): 86.1% | inhibition at 20 µM (SARS-CoV-2 3CLpro [2]; 20 µM, with DTT (4 mM), read-out: % inhibition @ 20 µM, DTT): 4.6% | IC50 (SARS-CoV-2 3CLpro [2]; no DTT): 6.4 µM | remaining activity at 10 µM [3]: 93.5%

O=C(N[C@@H](Cc1c[nH]c2ccccc12)C(=O)O)C(=O)c1c[nH]c2ccc(Br)cc12 [Compound 45, 5-bromoindolyl-3-glyoxyl-L-tryptophan]
binding with α-syn (protein-ligand complexes in MS) (α-synuclein): α-syn binding displayed | % enzyme activity @ 10 µM, chymotrypsin [1]: 69.2% | IC50 [1]: 16.3 µM | % inhibition @ 20 µM, No DTT (SARS-CoV-2 3CLpro [2]; 20 µM, no DTT): 21.8% | % inhibition @ 20 µM, DTT (SARS-CoV-2 3CLpro [2]; 20 µM, with DTT (4 mM)): 3.7% | % Inhibition @ 60 µM, HEK293 (HEK293 cells): 24.0% | % Inhibition @ 60 µM, 3D7 (P. falciparum 3D7; 60 µM, 72 h): 73.0% | % enzyme activity @ 10 µM, elastase [3]: 94.0% | % Inhibition @ 60 µM, Dd2 (P. falciparum Dd2; 60 µM, 72 h): 56.0%

O=C(N[C@H](Cc1c[nH]c2ccccc12)C(=O)O)C(=O)c1c[nH]c2ccc(Br)cc12 [Compound 46, 5-bromoindolyl-3-glyoxyl-D-tryptophan]
binding with α-syn (protein-ligand complexes in MS) (α-synuclein): α-syn binding displayed | remaining activity at 10 µM [1]: 47.7% | IC50 [1]: 6.3 µM | inhibition at 20 µM (SARS-CoV-2 3CLpro [2]; read-out: % inhibition @ 20 µM, DTT): 2.5% | inhibition at 20 µM (SARS-CoV-2 3CLpro [2]; read-out: % inhibition @ 20 µM, No DTT): 27.4% | inhibition at 60 µM (HEK293 cells; HEK293): 21.5% | inhibition at 60 µM (P. falciparum 3D7; Plasmodium falciparum, 3D7, 72 h, 60 µM, 72 h): ~100% | IC50 (P. falciparum 3D7; Plasmodium falciparum): 7.4 µM | remaining activity at 10 µM [3]: 90.9% | % Inhibition @ 60 µM, Dd2 (P. falciparum Dd2; 60 µM, 72 h): 97.5% | inhibition at 60 µM (P. falciparum Dd2; Plasmodium falciparum, DD2, 72 h, 60 µM, 72 h): ~100% | IC50 (P. falciparum Dd2; Plasmodium falciparum): 8.2 µM

O=C(N[C@@H](Cc1ccc(O)cc1)C(=O)O)C(=O)c1c[nH]c2cc(Br)ccc12 [Compound 51, 6-bromoindolyl-3-glyoxyl-L-tyrosine]
binding with α-syn (protein-ligand complexes in MS) (α-synuclein): α-syn binding displayed | % enzyme activity @ 10 µM, chymotrypsin [1]: 91.8% | % inhibition @ 20 µM, No DTT (SARS-CoV-2 3CLpro [2]; 20 µM, no DTT): 23.3% | % inhibition @ 20 µM, DTT (SARS-CoV-2 3CLpro [2]; 20 µM, with DTT (4 mM)): 6.9% | % Inhibition @ 60 µM, HEK293 (HEK293 cells): 21.5% | % Inhibition @ 60 µM, 3D7 (P. falciparum 3D7; 60 µM, 72 h): 58.0% | % enzyme activity @ 10 µM, elastase [3]: 100.3% | % Inhibition @ 60 µM, Dd2 (P. falciparum Dd2; 60 µM, 72 h): 56.0%

O=C(N[C@H](Cc1ccc(O)cc1)C(=O)O)C(=O)c1c[nH]c2cc(Br)ccc12 [Compound 52, 6-bromoindolyl-3-glyoxyl-D-tyrosine]
binding with α-syn (protein-ligand complexes in MS) (α-synuclein): α-syn binding displayed | % enzyme activity @ 10 µM, chymotrypsin [1]: 97.2% | % inhibition @ 20 µM, No DTT (SARS-CoV-2 3CLpro [2]; 20 µM, no DTT): 14.0% | % inhibition @ 20 µM, DTT (SARS-CoV-2 3CLpro [2]; 20 µM, with DTT (4 mM)): 4.9% | % enzyme activity @ 10 µM, elastase [3]: 97.1%

COc1ccc(C/C(=N\O)C(=O)NCCc2cc(Br)c(OCCCN(C)C)c(Br)c2)cc1Br [Compound 57, aplysamine-2]
anti-prion activity in a yeast-based assay (prion; ref [25]): micromolar anti-prion activities

O=C[C@H](C[C@@H]1CCNC1=O)NC(=O)[C@H](CC1CCCCC1)NC(=O)c1cc2ccccc2[nH]1 [Compound 62]
inhibition of SARS-CoV-2 3CLPro (SARS-CoV-2 3CLpro [4]): nanomolar inhibition

O=C[C@H](C[C@@H]1CCNC1=O)NC(=O)[C@H](Cc1cccc(F)c1)NC(=O)c1cc2ccccc2[nH]1 [Compound 63]
inhibition of SARS-CoV-2 3CLPro (SARS-CoV-2 3CLpro [4]): nanomolar inhibition

O=C(C(=O)N1CCN(C(=O)c2ccccc2)CC1)c1c[nH]c2ccccc12 [Compound 64]
inhibition of HIV-1 (HIV-1): nanomolar inhibition

C[C@@H]1CN(C(=O)c2ccccc2)CCN1C(=O)C(=O)c1c[nH]c2ccccc12 [Compound 65]
inhibition of HIV-1 (HIV-1): nanomolar inhibition

CC[C@H](C)[C@@H]1NC(=O)[C@H](CC(C)C)NC(=O)[C@@H](N2C(=O)N[C@@H](C)C2=O)CNC(=O)[C@H](CS(=O)(=O)O)NC(=O)/C=C/c2csc(n2)[C@H](Cc2ccc(O)cc2)NC(=O)C1=O [Compound 66, cyclotheonellazole D]
change of SARS-CoV-2 3CLPro inhibition in the presence of DTT (SARS-CoV-2 3CLpro [4]; DTT (4 mM) versus no DTT, ref [36]): more than eightfold reduction | elastase inhibition (elastase): nanomolar potent inhibitor

purealidine Q
anti-prion activity in a yeast-based assay (prion): micromolar anti-prion activities
